These results are taken from patent US20250188169A1, “METHOD FOR TREATING CLONAL HEM[…] DISORDERS” (THE CHILDREN'S MEDICAL CENTER CORPORATION, priority 2022, published 2025).

“Also recorded” adds a separate entry of the source.

For one series, the system named is zebrafish. The series can be described thus: Tolerability and survival of treated asxl1-mutant zebrafish. It is filed as in vivo. The following applies: over the three-month treatment period. On the procedure:
(§1) Zebrafish were generated with mosaic mutations in asxl1 using the TWISTR method (Avagyan et a1 Science 2021, PMID 34735227). Briefly, they were injected with guide-RNAs targeting asxl1 gene with Cas9 mRNA into 1-cell embryos of zebrafish, and grown to adulthood. At 3 months retroortibital bleeding was performed on the adult zebrafish and measure the size of the mutant clones in the peripheral blood by sequencing the genomic DNA at the targeting locus of asxl1. Zebrafish with at least 1 mutant allele of 5% of greater allele size were chosen for the cohorts, randomly assigned to be treated with either DMSO or NR4A1 inhibitor (DIM-C). The dose of DIM-C was determined in a previously conducted pilot experiment. Zebrafish with mosaic mutations in asxl1 are treated with either DMSO or an NR4A1 inhibitor (DIM-C) and analyzed over a three-month period. Peripheral blood was collected every month to determine the size of the mutant clones over time. […] RO=retro-orbital bleed, RO1=first RO, pre-treatment, RO2 through RO4=monthly RO bleeds following treatment.
It was previously shown by early genetic targeting nr4a1 during development prevented clonal growth of mutant cells. […]
FIG. 11 examines the survival curve of the fish in two cohorts. […] Additionally, marrow cellular composition was analyzed at 8 months post treatment by flow cytometry.

The next series concerns asxl1-mutant clones. In words: asxl1-mutant clonal dynamics in peripheral blood of mosaic asxl1-mutant zebrafish (VAF by sequencing). It is filed as in vivo. As to the method: as §1
Clonal hematopoiesis. Zebrafish were generated with mosaic mutations in asxl1 using the TWISTR method (Avagyan et a1 Science 2021, PMID 34735227). Briefly, they were injected with guide-RNAs targeting asxl1 gene with Cas9 mRNA into 1-cell embryos of zebrafish, and grown to adulthood. At 3 months retroortibital bleeding was performed on the adult zebrafish and the size of the mutant clones in the peripheral blood was measured by sequencing the genomic DNA at the targeting locus of asxl1. Zebrafish with at least 1 mutant allele of 5% of greater allele size were chosen for the cohorts, randomly assigned to be treated with either DMSO or NR4A1 inhibitor (DIM-C). Zebrafish with mosaic mutations in asxl1 were treated with either DMSO or an NR4A1 inhibitor (DIM-C) and analyzed over a three-month period. Peripheral blood was collected every month to determine the size of the mutant clones over time.
It was previously shown by early genetic targeting nr4a1 during development prevented clonal growth of mutant cells. Next, the hypothesis that pharmacologic inhibition of nr4a1 would halt or reduce mutant clonal growth over time was tested (FIG. 1). To test this hypothesis, a cohort of asxl1 mutant zebrafish were generated and screened for the presence of asxl1 mutant clone at at least 5% VAF in peripheral blood. The positively screened mutant fish were then treated either with DMSO or minimally toxic dose of DIM-c (Tocris compound) at 9.5 uM concentration overnight, between 14-16 hours long, 5 days of the week for 6 months. Peripheral blood from both groups was collected by retroorbital bleeding every month for measurement of the mutant clones in the blood by next generation sequencing (FIG. 2). N=are the numbers of fish at the initiation of treatment. A more detailed experimental schema with exact dates in order to calculate exact ages of the fish or post treatment timepoints is shown in FIG. 10.

For series [1], the system named is marrow myelomonocytes, lymphocytes and progenitor/precursors. In words: Marrow cellular composition by flow cytometry. The following applies: 8 months post treatment. The class given is in vivo, zebrafish. On the procedure:
FIG. 11 examines the survival curve of the fish in two cohorts. An event was finding the fish dead or moribund after overnight treatment; no fish died during the day or off treatment days or as a consequence of retroorbital bleeding. No statistical difference was found with p values >0.05 by two different tests between the groups. 17 DMSO and 13 DIMC fish were left for final analysis. Additionally, marrow cellular composition was analyzed at 8 months post treatment by flow cytometry.

For the compound `Oc1ccc(C(c2c[nH]c3ccccc23)c2c[nH]c3ccccc23)cc1` [DIM-C, 1,1-bis(3′-indolyl)-1-(p-hydroxyphenyl)methane], the “physical abnormalities in treated zebrafish” value in the series on zebrafish was “No physical abnormalities were observed”. In the series with asxl1-mutant clones (DIM-C treated zebrafish, three-month period, null hypothesis: no change), the “change in asxl1 frameshift indel containing clone size compared to 0 (Wilcoxon rank test)” value was “no significant change”. In the series with asxl1-mutant clones (DIM-C treatment, three-month period, peripheral blood), the “change of asxl1-mutant clones with non-frameshift indels over time” value is “similarly unchanged over time; also recorded: did not change significantly over time”. Further, the “expansion of asxl1-mutant clones with frameshift indels (VAF over time)” value in the series on asxl1-mutant clones (DIM-C vs DMSO, three-month period, monthly retro-orbital bleeds, peripheral blood) is “less pronounced and plateaus by 3 months; also recorded: less expansion of asxl1-mutant clones”. In addition, in the series with asxl1-mutant clones (DIM-C, all zebrafish (n=12), three-month period), the “asxl1-mutant clonal expansion, clones with frameshift and non-frameshift indels, all zebrafish” value is “significantly abated asxl1-mutant clonal expansion”. In addition, the “change in size of the largest clone over treatment” value with asxl1-mutant clones (DIMC treatment arm, compared to 0 (no change over time), one sample t and Wilcoxon test) is “had not changed significantly”. The “percent change of clone size (VAF at RO4 compared to VAF at RO1), frameshift-indel clones, compared to DMSO” value in the series on asxl1-mutant clones (three-month period, clones with VAF of 5% or greater in at least 1 time point) is “significantly less expansion”. Further, the “marrow cellular composition, difference between treatment groups” value in series [1] is on record as “no difference between the treatment groups”.
